Drawing on patent US6008019A, “Plasminogen activator from saliva of the vampire bat” (Schering Aktiengesellschaft, priority 1989, dated 1999), this text covers Km for two molecules.

SMILES strings stand for the structures. Like-named read-outs stand apart in the source and are kept apart here. Where a SMILES comes first, the peptide text is derived from it. [ ]: non-standard residue; d: D form. The star is where a group is joined. pNA = O=[N+]([O-])c1ccc(N*)cc1; pGlu = O=C1CC[C@@H](C(=O)O)N1

Test [1] has as its target T1, t-PA (tissue-type plasminogen activator) (Homo sapiens, UniProt P00750). Briefly: Km determination of amidolytic chromogenic substrates with t-PA. It counts as biochemical. The settings on record: 3 units per hole, 100 mM Tris pH 8.0/100 mM NaCl/0.01% Tween 80, 37° C., Lineweaver-Burk plot. The method, then:
(§1) In a 96-hole plate, respectively 90 μl of 100 mM Tris pH 8.0/100 mM NaCl/0.01% "Tween" 80 and 50 μl of the corresponding chromogenic substrate (all from Kabi Vitrum, Stockholm, Sweden) in the final concentrations of 0.03/0.06/0.1/0.3/0.6 and 1 mM are incubated with 10 μl (3 units per hole) of the corresponding plasminogen activator at 37° C., and the thus-released p-nitroaniline is determined photometrically at 405 nm at various points in time between 0-7 hours. The resultant data are evaluated with the aid of a Lineweaver-Burk plot, and the Km value is determined (Segel, I. H., Enzyme Kinetics, John Wiley and Sons, New York). The following chromogenic substrates were utilized:

Test [2] deals with T2, Urokinase (Homo sapiens, UniProt P00749). Briefly: Km determination of amidolytic chromogenic substrates with urokinase. The format is biochemical. The following applies: 3 units per hole, 100 mM Tris pH 8.0/100 mM NaCl/0.01% Tween 80, 37° C., Lineweaver-Burk plot. The method, then:
as §1

In test [3] the target is T1, t-PA (tissue-type plasminogen activator). The settings on record: literature value (Friedberger 1982), read-out: Km (value in parentheses, from the literature); cited from earlier work.
The target in test [4] is T2, Urokinase. The settings on record: literature value (Friedberger 1982), read-out: Km (value in parentheses, from the literature); cited from earlier work.

T1 sequence (P00750 36-562): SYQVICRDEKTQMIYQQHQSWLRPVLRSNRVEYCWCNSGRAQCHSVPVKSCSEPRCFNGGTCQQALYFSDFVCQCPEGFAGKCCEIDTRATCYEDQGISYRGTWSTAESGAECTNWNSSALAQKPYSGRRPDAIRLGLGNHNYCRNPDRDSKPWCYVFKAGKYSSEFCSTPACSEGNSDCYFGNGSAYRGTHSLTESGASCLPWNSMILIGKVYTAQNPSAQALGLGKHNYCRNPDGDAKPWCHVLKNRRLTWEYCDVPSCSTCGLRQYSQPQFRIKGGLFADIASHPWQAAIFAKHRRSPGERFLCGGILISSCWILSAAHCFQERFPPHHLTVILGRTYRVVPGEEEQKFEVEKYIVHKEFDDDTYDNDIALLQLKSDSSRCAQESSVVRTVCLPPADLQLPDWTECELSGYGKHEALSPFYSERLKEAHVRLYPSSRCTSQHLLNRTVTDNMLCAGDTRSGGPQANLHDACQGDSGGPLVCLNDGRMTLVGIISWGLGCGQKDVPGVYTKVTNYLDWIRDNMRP

Usually Km stands for the substrate concentration at which the rate is half of its maximum. Take `CC[C@@H](C)[C@@H](N)C(=O)N1CCC[C@H]1C(=O)N[C@@H](CCCNC(=N)N)C(=O)Nc1ccc([N+](=O)[O-])cc1` [S-2288, H-D-Ile-Pro-Arg-pNA] (H-[dI]-Pro-Arg-pNA): the Michaelis constant (Km) in test [1] is 700 µM; in test [2] (read-out: Km), 400 µM; in test [3] it was 1000 µM.
In the case of `N=C(N)NCCC[C@H](NC(=O)CNC(=O)[C@@H]1CCC(=O)N1)C(=O)Nc1ccc([N+](=O)[O-])cc1` [S-2444, <Glu-Gly-Arg-pNA] ([pGlu]-Gly-Arg-pNA), the Km in test [2] is 100 µM; in test [4] it was 90 µM.
